Consider five compounds from US7695908B2, “Methods for predicting methotrexate polyglutamate levels using pharmacogenetics” (Prometheus Laboratories Inc., priority 2004, dated 2010).

The nature of one data set: HPLC quantification of red blood cell MTXPG concentrations in rheumatoid arthritis patients on low-dose MTX therapy, with regression on age, dose, route and RFC-1/GGH genotype. The data set is classed as in vivo, human. Conditions: multivariate linear regression, route p<0.04. On the procedure: The study was cross-sectional at three investigational sites (The Center of Rheumatology, Albany, N.Y.; Rheumatology Practice, Knoxville, Tenn.; Radiant Research, Daytona Beach, Fla.). To be eligible, patients (≧18 yrs.) had to meet the revised criteria of the American Rheumatism Association for Rheumatoid Arthritis and had to have received low-dose MTX therapy for at least three months. Other medications included low-dose corticosteroids (<10 mg day) and folic acid supplementation for the prevention of side-effects induced by MTX. Local Institutional Review Board approved the study and patient consent was obtained for each patient. Patients' demographics were collected at the time of enrollment in the study. Blood was drawn in EDTA-containing tubes and shipped overnight to Prometheus Laboratories Inc. (San Diego, Calif.) for analysis.
Red blood cell MTXPG concentrations were measured as described previously using an HPLC-fluorometry procedure with a post-column photo-oxidation technique (Dervieux et al., Clin. Chem., 49:1632-1641 (2003)). Results are expressed in nmol/L as either total MTXPG1-5 levels or total long-chain MTXG3-5 levels (i.e., the sum of MTXP3+MTXPG4+MTXPG5 levels).
The statistical analysis consisted of a multivariate linear or logistic regression, with MTXPG levels (i.e., MTXPG1-5, MTXPG3-5) as dependent variables and predictors (i.e., age, weekly MTX dose, route of administration, and RFC-1 and GGH genotypes) as independent variables. For calculating a pharmacogenetic index, the genotypes were dichotomized as homozygous mutants (RFC-1 80A/A and GGH −401T/T; value of 1) versus wild-type or heterozygous (RFC-1 80G/G or 80G/A and GGH −401C/C or −401C/T; value of 0) as appropriate. Group comparisons were performed with the Kruskall-Wallis ANOVA. The likelihood of having MTXPG levels above group median was derived from the logistic regression model. Odds ratio (OR) and probability (P) are given with a 95% confidence interval (CI). Estimates are given with standard error.
As to `CN(Cc1cnc2nc(N)nc(N)c2n1)c1ccc(C(=O)N[C@@H](CCC(=O)O)C(=O)O)cc1` [MTX, methotrexate], the “RBC MTXPG levels after injected MTX compared to oral administration” value was “higher MTXPG levels”.

The data set is the same for the next values; noted with them: unadjusted, Kruskall-Wallis; FIG. 3.
For the compound `CN(Cc1cnc2nc(N)nc(N)c2n1)c1ccc(C(=O)N[C@@H](CCC(=O)O)C(=O)O)cc1` [MTX, methotrexate], the “Change of RBC level with increased pharmacogenetic index (PI, from −1 to 1)” value was “no significant differences”.
Still for that read-out and setting: the result for `CN(Cc1cnc2nc(N)nc(N)c2n1)c1ccc(C(=O)NC(CCC(=O)NC(CCC(=O)O)C(=O)O)C(=O)O)cc1` (stereo not drawn) [MTXPG2] reads “no significant differences”; that for `CN(Cc1cnc2nc(N)nc(N)c2n1)c1ccc(C(=O)N[C@@H](CCC(=O)N[C@@H](CCC(=O)N[C@@H](CCC(=O)O)C(=O)O)C(=O)O)C(=O)O)cc1` [MTXPG3], “increased”.
In the case of `CN(Cc1cnc2nc(N)nc(N)c2n1)c1ccc(C(=O)N[C@@H](CCC(=O)N[C@@H](CCC(=O)N[C@@H](CCC(=O)N[C@@H](CCC(=O)O)C(=O)O)C(=O)O)C(=O)O)C(=O)O)cc1` [MTXPG4], the “Change of RBC level with increased pharmacogenetic index (PI, from −1 to 1)” value is reported as “increased”.
Consider `CN(Cc1cnc2nc(N)nc(N)c2n1)c1ccc(C(=O)NC(CCC(=O)NC(CCC(=O)NC(CCC(=O)NC(CCC(=O)NC(CCC(=O)O)C(=O)O)C(=O)O)C(=O)O)C(=O)O)C(=O)O)cc1` (stereo not drawn) [MTXPG5], for which the “Change of RBC level with increased pharmacogenetic index (PI, from −1 to 1)” value was “increased”.
